Holding throughout (assay): NCI tumour cell line growth inhibition, 48 h
The test system of assay [1] is K-562 leukemia.
The test system of assay [2] is NCI-H23 lung.
Assay [3] has as its system TK-10 renal.
Assay [4] relates to SF-539 CNS.
For assay [5], the system named is MALME-3M melanoma.
For assay [6], the system named is OVCAR-3 ovarian.
Assay [7] deals with HCT-116 colon.
The subject of assay [8] is SNB-75 CNS.
In assay [9] the test system is PC-3 prostate.
The test system of assay [10] is MCF7 breast.

Drawing on PubChem BioAssay (NCI), this text covers TGI and GI50 for 30 compounds.

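Following 48 hours of exposure in 96-well plates, responses at five concentrations were used to interpolate endpoints linearly. GI50: concentration for 50% inhibition of growth. At the TGI there is no net growth.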

`CC1(C)C2CCC13CS(=O)(=O)N1O[C@]13C(=O)O2` (stereo partly specified): the TGI in [1], in assay [2], in assay [3], in assay [4], in assay [5] and in assay [6] was above 100 µM in each case. Moreover, the TGI in [7] and in assay [8] was above 100 µM each time.

Consider `CN(C)CCC(/C=C/c1ccccc1)=N\Nc1ccc(Cl)cc1Cl`, for which the TGI in [1] worked out at 28.7 µM; in assay [2] it was 31.4 µM; in assay [3], 27.2 µM; in assay [4], 29 µM; in assay [5] it was 41.2 µM; in assay [6] it was 27.5 µM. The TGI in assay [7] is 28.8 µM; in assay [8], 18.8 µM.

Consider `O=C(O)/C(Cl)=C(\Cl)C(=O)Nc1ccc(Cl)c(Cl)c1Cl`, for which the TGI was determined as 83.1 µM in [1]; 33.2 µM in assay [2]; 30.9 µM in assay [3]; 35.6 µM in [4]; 34.9 µM in assay [5]; 35.5 µM in [6]. The TGI was determined as 28.1 µM in [7] and 34.8 µM in assay [8].

In the case of `Cc1cc(N(CCC#N)CCC#N)ccc1/C=C1/N=C(c2ccccc2)N(N)C1=O`, the TGI in assay [1], in assay [2], in [3], in assay [4], in assay [5] and in assay [6] was above 100 µM in each case. Also, the TGI is above 100 µM in assay [7] and 64.9 µM in assay [8].

Regarding `Cn1c2ccccc2n2c(=O)c3c(c(C#N)c12)CCCC3`, the TGI in assay [1], in assay [2], in assay [3], in assay [4], in assay [5] and in [6] was above 100 µM throughout. Besides, the TGI in assay [7] and in assay [8] was above 100 µM each time.

As to `Cc1cc2c(c(C(=O)O)c1C)-c1cccc(F)c1C2=O`, the TGI in [1], in assay [2], in assay [3], in assay [5], in assay [6] and in [8] was above 100 µM throughout.

As to `C[CH2][Pb]([CH2]C)([CH2]C)[O]C(=O)c1ccc2ccccc2n1`, the GI50 in assay [9], in assay [1], in assay [2], in assay [4], in [5] and in assay [6] was above 10 µM in each case. The GI50 in [7] is above 10 µM. Also, the TGI in assay [9], in assay [1], in [2], in [4], in assay [5] and in [6] was above 10 µM throughout. Further, the TGI in assay [7] is above 10 µM.

On to `O=P1(Oc2ccccc2)C(c2ccccc2)C(c2ccccc2)=NN1c1ccccc1` (stereo unspecified), for which the TGI in [1] was 66 µM; in assay [2], 51.9 µM; in assay [3], above 100 µM; in assay [4] it was 35.9 µM; in [5], above 100 µM; in [6] it was 42.2 µM. Moreover, the TGI in assay [7] was 31.3 µM; in assay [8], above 100 µM.

For `CC1(C)OCC(C(O)C2OC(C)(C)OC2/C=N\O)O1` (stereo unspecified), the TGI in assay [1], in [2], in assay [3], in assay [4], in assay [5] and in [6] was above 100 µM in each case. The TGI in [7] and in [8] was above 100 µM in each case.

As for `CN1COc2c(n(C)c(=O)[nH]c2=O)C1`, the TGI in assay [1], in assay [2], in assay [3], in [4], in [5] and in [6] was above 100 µM in each case. Moreover, the TGI in [7] and in [8] was above 100 µM each time.

As for `COC(CN1C=C(Sc2ccccc2)CC1)OC`, the TGI in [1] was 53.7 µM; in assay [2] it was 69.7 µM; in assay [3] it was above 100 µM; in assay [4], 68.3 µM; in [5], above 100 µM; in assay [6] it was 63.6 µM. Further, the results for the TGI in [7] and in assay [8] were above 100 µM and 52.7 µM, respectively.

As for `C/C=C(\C)c1cc(O)c(C)c2c1Oc1cc(O)c(Cl)c(C)c1C(=O)O2`, the TGI is 38.6 µM in assay [2], 30.4 µM in assay [3], 48.2 µM in assay [4] and 53.3 µM in assay [8].

`COC(=O)C(C)(C)N=CN(C)C`: the TGI in assay [1], in assay [2], in [3], in [4], in [5] and in assay [6] was above 100 µM throughout. The TGI in assay [7] and in [8] was above 100 µM each time.

For `Cc1nc2ccccc2c(/C=C/c2ccc(Br)cc2)c1C(=O)/C=C/c1ccccc1`, the GI50 in [2] is 1.66 µM; in [3], 2.15 µM; in assay [4], 1.76 µM; in assay [5] it was 1.7 µM; in assay [10], 0.895 µM; in assay [6], 1.52 µM. The GI50 is 0.601 µM in [7] and 1.73 µM in assay [8]. The TGI amounted to 3.81 µM in assay [2]; 3.87 µM in [3]; 3.2 µM in assay [4]; 3.12 µM in assay [5]; 2.72 µM in assay [10]; 3.14 µM in assay [6]. Moreover, the TGI in [7] turned out to be 2.28 µM; in assay [8], 5.44 µM.

For `CCOC1=C2N=C(Cc3ccccc3F)N=C2C(=O)c2ccccc21`, the TGI in [1], in [2], in assay [4], in [5], in assay [6] and in assay [7] was above 100 µM in each case. Also, in [8], the TGI was above 100 µM.

Regarding `C=C1CCC2[C@@H](CCC3[C@]2(C)CCC[C@]3(C)C(=O)OC)[C@@H]1CC=O` (stereo partly specified), the GI50 in [1] was 26 µM; in [3] it was 31 µM; in assay [8] it was 37.1 µM. In addition, the TGI in assay [1] worked out at 77.4 µM; in assay [2], 66.5 µM; in assay [3] it was 77.5 µM; in assay [4], 37.6 µM; in assay [5], 87.7 µM; in assay [6], 41.9 µM. For the same compound, the TGI in assay [7] was 30.7 µM; in assay [8] it was above 100 µM.

As for `O=C(NC1CCCC1=O)c1ccccc1` (stereo unspecified), the TGI in [1], in [2], in [3], in assay [4], in assay [5] and in assay [6] was above 100 µM throughout. Further, the TGI in assay [7] and in assay [8] was above 100 µM each time.

For `CC(C)c1c2[nH]c3ccccc3c2c(C(C)C)c2[nH]c3ccccc3c12`, the TGI in [1], in assay [2], in [3], in assay [4], in assay [5] and in assay [6] was above 100 µM in each case. Besides, the TGI in assay [7] and in assay [8] was above 100 µM each time.

For `CNS(=O)(=O)NNS(=O)(=O)c1ccc(Cl)cc1`, the TGI in assay [1], in assay [2], in assay [3], in assay [4], in assay [5] and in [6] was above 100 µM each time. In addition, in assay [7], the TGI was above 100 µM.

`COc1ccc(-c2cc(=O)c3c(OC)c(OC)c(OC)c(OC)c3o2)cc1`: the TGI in assay [1], in assay [2], in assay [3], in assay [4], in [5] and in [10] was above 100 µM each time. Also, the TGI in [6], in assay [7] and in assay [8] was above 100 µM throughout.

On to `CCO/C=C1\N=C(c2ccccc2Br)OC1=O`, for which the TGI in assay [1], in assay [2], in assay [3], in assay [4], in assay [5] and in assay [6] was above 100 µM in each case. This compound also came in with a TGI in [8] above 100 µM.

Take `COc1cc(-c2cc(-c3cc([N+](=O)[O-])c(/C=N/NC(=O)c4ccncc4)o3)ccc2OC)ccc1C`: the TGI in [1], in assay [2], in assay [3], in assay [4], in assay [5] and in [6] was above 100 µM throughout. Besides, in assay [8], the TGI is above 100 µM.

`CCOC(=O)C(=O)Nc1cc(Cl)ccc1Cl`: the TGI in assay [1], in assay [2], in assay [3], in assay [4], in [5] and in [6] was above 100 µM in each case. Besides, the TGI in assay [7] and in assay [8] was above 100 µM in each case.

For the compound `COc1cc2nc(NCCCCCNC(=O)c3ccco3)nc(N)c2cc1OC`, the TGI in [1] was above 100 µM; in assay [2], above 100 µM; in assay [3] it was above 100 µM; in [4], 36.2 µM; in [5], 33.3 µM; in [6], 62.5 µM. In assay [8], the TGI came out at 54.2 µM.

As to `COc1ccc(C(Cl)=C(c2ccc(OCCN(C)C)cc2)c2ccc(OCCN(C)C)cc2)cc1`, the TGI turned out to be 3.69 µM in assay [1]; 3.98 µM in [2]; 31.1 µM in [3]; 2.93 µM in [4]; 3.35 µM in [5]; 5.02 µM in assay [6]. Also, the figures for the TGI in [7] and in [8] were 2.68 µM and 3.29 µM, respectively.

Take `COCCOCOc1ccc(OCOCCOC)c2c1C(=O)c1ccccc1C2=O`: the TGI in [1], in [2], in [3], in [4], in assay [5] and in assay [6] was above 100 µM each time. Further, the TGI in [7] was above 85.4 µM; in assay [8] it was above 100 µM.

For `Fc1cccc(C2SCc3nc4ccccc4n32)c1F` (stereo unspecified), the TGI in [1], in assay [2], in [3], in [4], in [5] and in [6] was above 100 µM each time. Besides, the TGI in [7] and in assay [8] was above 100 µM throughout.

Regarding `O=C([CH-]C(=O)c1ccccc1)c1ccccc1.O=C([CH-]C(=O)c1ccccc1)c1ccccc1.[OH-].[OH-].[Ti+4]`, the GI50 in [1] is 63.3 µM; in [3] it was above 100 µM; in [4], 29.7 µM; in [5], above 100 µM; in assay [6], 51.1 µM; in assay [7] it was 84.3 µM. Moreover, the GI50 in [8] is 49.1 µM. The TGI in [1], in assay [3], in [4], in assay [5], in assay [6] and in assay [7] was above 100 µM each time. The TGI in assay [8] was above 100 µM.

With `CC1CN1c1c(C(=O)/C=C/c2ccccc2)c(-c2ccccc2)nn(C)c1=O` (stereo unspecified), the TGI in assay [1] came out at 50.4 µM; in assay [2], 31.8 µM; in assay [3], 61.4 µM; in assay [4], 30.7 µM; in [5], 34.9 µM; in assay [6], 40.8 µM. In addition, the TGI in assay [7] amounted to 33.2 µM; in assay [8], 40 µM.

Regarding `N#Cc1ccc(N=Cc2c([O-])ccc3ccccc23)cc1.[C-]#[O+].[C-]#[O+].[Ir]`, the GI50 in assay [1] was 8.99 µM; in assay [2], 10.5 µM; in assay [3] it was 4.35 µM; in assay [4], 15.2 µM; in assay [5], 4.42 µM; in assay [6], 4.02 µM. The GI50 is 13.2 µM in [7] and 11 µM in assay [8]. Further, the TGI in assay [1] is 28.9 µM; in [2], 24.4 µM; in [3] it was 13.5 µM; in [4] it was 29.2 µM; in [5], 15.1 µM; in assay [6] it was 15.1 µM. Besides, the TGI turned out to be 26 µM in assay [7] and 24.9 µM in assay [8].
